The conditions of data set [1]: for remaining percentage (residual % content) in NE: 672 h; for content in CS-OA NE used for cellular and in vivo studies / loading in NE: CS-OA NE; for final concentration in NE: loaded in CS-OA NE, immediately after preparation, four batches. As to the method: The eugenol and Fer-Me quantification was performed using an HPLC apparatus, coupled with a UV-Vis Variable Wavelength Detector equipped with a deuterium lamp with a wavelength accuracy of ±1 nm (Agilent 1100 Series, model G1314A, Santa Clara, CA, USA). The mobile phase was constituted by a mixture of CH3CN and H2O 38:62 (v/v) acidified with formic acid at pH 3.25, the flow rate was maintained at 1 mL/min, and separations were performed at room temperature on a 150 mm × 4.6 mm, […]. SUPELCOSIL^TM LC-18 endcapped silica column (Supelco®, Merck, Milan, Italy). Eugenol was detected at a wavelength of 210 nm, while Fer-Me was detected at 320 nm. The injection volume was 20 µL for each sample. […] An ANOVA was performed to assess the feasibility of averaging the peak area values across three calibration curves for both the analytes. […] Both standard curve and NE samples were injected after dilution in a mixture of mobile phase and acetate buffer (5 mM); every analysis on each sample was done in triplicate.
The yield of the process was verified by quantifying by HPLC analysis Fer-Me and eugenol loaded into the CS-OA NEs immediately after preparation and after 1, 2, and 4 weeks of storage at 4 °C. […] Fer-Me and eugenol were quantified by the HPLC method into the external aqueous phase, passing through the membrane as permeate.

A further data set in a line: in vivo. The following applies: rat; for AUC / Cmax / Tmax: nasal CS-OA NE, Fer-Me 0.4 mg/kg and eugenol 0.8 mg/kg. On the procedure:
(§1) Fer-Me and eugenol were nasally co-administered as loaded in CS-OA NE to evaluate their concentration–time profiles in male Sprague-Dawley rats’ (200–250 g body weight; Charles River laboratories, Calco, Italy) bloodstream and CSF. The results were compared with those obtained by the rat intravenous administrations of Fer-Me (10 mg/kg; present study), and 20 mg/kg of eugenol. The sample size (4 rats/group) has been chosen based on our previous studies. The experimental procedures were approved by the Italian Ministry of Health and were performed in accordance with the European Communities Council Directive of September 2010 (2010/63/EU). According to the ARRIVE guidelines, all possible efforts were made to minimize animal pain and discomfort and to reduce the number of experimental subjects.
Fer-Me and eugenol were nasally co-administered to rats at the doses of 0.4 mg/kg (about 0.1 mg/rat) and 0.8 mg/kg (about 0.2 mg/rat), respectively, as encapsulated in CS-OA NE (Fer-Me content about 1 mg/mL; eugenol content about 2 mg/mL). A group of four rats anesthetized and laid on their backs (weighing approximately 250 g) received CS-OA NE after being fasted for 12 h. In particular, each rat received 50 μL of CS-OA NE formulation in each nostril. The nasal administration was carried out using a semiautomatic pipette connected to a short polyethylene tubing, which was inserted about 0.6 to 0.7 cm into each nostril. Following the administration, blood samples (100 μL) were collected at predetermined time points, along with CSF samples (30 μL). The blood samples (n = 4 for timepoint) were immediately mixed with 200 μL of ice-cold CH3CN and then 100 μL of internal standard (100 μM BNZ in CH3CN) was added. These samples were centrifuged at 12,500× g for 5 min. About 300 μL of the supernatant was then withdrawn and centrifuged again. Finally, 10 μL of the resultant sample was analyzed using HPLC for the quantification of Fer-Me and eugenol.
The HPLC apparatus was the same used for the uptake experiments with RPMI 2650 cells (Section 2.3.3). […] Calibration curves of peak areas versus concentration in the range 0.5 to 10 μM for Fer-Me (0.10 to 2.08 μg/mL), and eugenol (0.08 to 1.64 μg/mL), obtained dissolving the compounds in simulated CSF, were linear (n = 8, r ≥ 0.996, p < 0.0001). […] Therefore, the concentrations of these compounds determined in whole blood were referred to as the peak area ratio with respect to the internal standard BNZ. Eight different concentrations in rat whole blood at 4 °C, ranging from 0.5 to 50 μM for Fer-Me (0.10 to 10.41 μg/mL) and eugenol (0.08 to 8.21 μg/mL) were used to generate calibration curves in this biological system, which were linear (n = 8, r ≥ 0.990, p < 0.001).
Fer-Me in vivo half-life (t1/2) in the rats’ bloodstream was determined using nonlinear regression (exponential decay) of concentration values quantified at appropriate time intervals after infusion, further validated by applying linear regression to the semi-logarithmic plot. The area under the concentration–time curves (AUC, μg∙mL^−1∙min) in rat bloodstreams or CSF, following Fer-Me intravenous administration or CA-OA NE nasal administration, were calculated using the trapezoidal method.
Following the nasal administration of CS-OA NE, the absolute bioavailability (F) values of Fer-Me and eugenol were calculated as the ratio of the nasal AUC to the intravenous AUC values measured in the bloodstream, normalized to the respective doses, according to Equation (3):(3) F=AUCnasal/AUCIV·doseIV/dosenasal GraphPad Prism version 7.0 (GraphPad Software, San Diego, CA, USA) was used for all calculations.

In a further data set the test system is several cell lines. The settings on record: cited from earlier work.
The conditions of data set [2]: male, Sprague-Dawley, rat, in vivo. On the procedure:
as §1

Like-named read-outs stand apart in the source and are kept apart here.

For the molecule `COC(=O)/C=C/c1ccc(O)c(OC)c1` [Fer-Me, methyl ferulate], in data set [1], the “remaining percentage (residual % content) in NE” value was “about 81%”; the “content in CS-OA NE used for cellular and in vivo studies” value is “about 5 mM”; the “loading in NE” value is “about 1 mg/mL”; the “final concentration in NE” value was 123.0 ± 0.2 µg per 100 µL of NE. Further, in “in vivo”, the “CSF bioavailability (AUC) after nasal CS-OA NE relative to intravenous administration” value was “about 30 times”, the “absolute bioavailability F (bloodstream)” value is 56%, the “time at which CSF concentration decreased to zero (permanence in the CSF)” value is 120 min and the “time within which plasma concentration decreased to zero” value is recorded as ≤ 90 min. Also, in “in vivo” (inhaled or intranasal), the “Tmax in CSF” value worked out at 20 min and the “Tmax in the bloodstream” value came to 40 min.

`C=CCc1ccc(O)c(OC)c1` [eugenol]: the “concentration known to induce cytotoxicity” value with several cell lines was 5000 µM. In data set [1], the “remaining percentage (residual % content) in NE” value is reported as “about 71%”; the “content in CS-OA NE used for cellular and in vivo studies” value is given as ~12 mM; the “loading in NE” value was ~2 mg/mL; the “final concentration in NE” value is listed as 260.0 ± 0.5 µg per 100 µL of NE. Further, the “dose-normalized CSF AUC of eugenol relative to Fer-Me” value in data set [2] is listed as “about 16 times”. For the same molecule, the bioavailability in the data set “in vivo” (male, Sprague-Dawley, 0.8 mg/kg, nasal CS-OA NE vs intravenous, dose-normalized, read-out: absolute bioavailability F (bloodstream)) was found to be 95%. In the data set “in vivo” (male, Sprague-Dawley), the “time at which CSF concentration decreased to zero (permanence in the CSF)” value turned out to be 120 min and the “time within which plasma concentration decreased to zero” value is listed as ≤ 90 min. Besides, the AUC in the data set “in vivo” (male, Sprague-Dawley, inhaled or intranasal, 0.8 mg/kg, read-out: AUC in CSF (converted)) was 1060 ng·h/mL. The AUC in “in vivo” (male, Sprague-Dawley, inhaled or intranasal, 0.8 mg/kg, read-out: AUC in the bloodstream (converted)) was 111 ng·h/mL. Further, in “in vivo” (male, Sprague-Dawley, inhaled or intranasal, 0.8 mg/kg, read-out: Cmax in CSF), the Cmax is 1050 ± 80 ng/mL. In addition, in the data set “in vivo” (male, Sprague-Dawley, inhaled or intranasal, 0.8 mg/kg, read-out: Cmax in the bloodstream), the maximum concentration (Cmax) was found to be 150 ± 10 ng/mL. Further, the Tmax in the data set “in vivo” (male, Sprague-Dawley, inhaled or intranasal, 0.8 mg/kg, read-out: Tmax in CSF (converted)) is 20 min. Moreover, the Tmax in “in vivo” (male, Sprague-Dawley, inhaled or intranasal, 0.8 mg/kg, read-out: Tmax in the bloodstream (converted)) is 40 min.

For orientation: bioavailability means dose-corrected exposure relative to a reference, in per cent. By AUC is commonly meant concentration integrated over time. Broadly, the Cmax is the peak of the concentration-time curve. The term Tmax denotes the time from dosing to the highest level.

These data come from PMC11945475, “Nasal Administration of a Nanoemulsion Based on Methyl Ferulate and Eugenol Encapsulated in Chitosan Oleate: Uptake Studies in the Central Nervous System” (Pharmaceutics, 2025).
